Calls of active or inactive are those of the source. No cut-off for these calls is given here.
Tests used:
[1] = molecular target: T1, Transcription factor SOX-18 (Mus musculus) (UniProt P43680); assay: (§1) Competitive binding affinity to full-length mouse SOX18 expressed in Sf9 cells assessed as reduction in SOX1 8- DNA binding by measuring FP-bound fraction at 200 uM using FAM-labelled Prox1 -DNA element incubated for 5 mins in dark at room temperature, 10 mins at 37 degC and 30 mins at room temperature by fluorescence polarization assay relative to control; set-up: scale not given: the % may be the effect or the level left
T1 sequence (whole entry): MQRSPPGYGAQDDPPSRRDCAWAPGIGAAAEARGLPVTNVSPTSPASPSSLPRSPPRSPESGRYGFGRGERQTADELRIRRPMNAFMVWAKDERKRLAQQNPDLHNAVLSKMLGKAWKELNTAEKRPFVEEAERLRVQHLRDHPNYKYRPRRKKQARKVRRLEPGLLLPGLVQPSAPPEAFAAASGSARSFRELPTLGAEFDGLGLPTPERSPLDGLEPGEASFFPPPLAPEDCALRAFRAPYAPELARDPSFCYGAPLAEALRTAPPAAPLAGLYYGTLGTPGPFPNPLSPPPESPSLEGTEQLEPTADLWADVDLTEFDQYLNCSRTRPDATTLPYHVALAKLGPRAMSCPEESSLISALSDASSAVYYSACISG

[2] = Cytotoxicity in African green monkey COS7 cells assessed as reduction in cell viability incubated for 24 hrs by Alamar blue dye based assay; set-up: species or system COS-7; details: chlorocebus aethiops
[3] = Critical micellar concentration of the compound; type: physicochemical
[4] = Cytotoxicity in human HepG2 cells assessed as reduction in cell viability incubated for 24 hrs by Alamar blue dye based assay
[5] = molecular target: T1, Transcription factor SOX-18 (Mus musculus); assay: as §1, with “50” for “200”; set-up: scale not given: the % may be the effect or the level left
[6] = Cytotoxicity in HEK293 cells assessed as reduction in cell viability incubated for 24 hrs by Alamar blue dye based assay; details: human
[7] = molecular target: T1, Transcription factor SOX-18 (Mus musculus); assay: as §1, with “binding” for “binding by measuring FP-bound fraction at 200 uM”, “element at 1 to 1000 uM” for “element”, “assay” for “assay relative to control”
4T1.2 = assay: Antitumor activity against mouse 4T1.2 cells implanted in BALB/c mouse assessed as median disease latency time at 25 mg/kg/day for 10 days (Rvb =33 days); type: functional

In the case of `COc1cc(O)c(C(=O)O)c(C=Cc2ccc3ccccc3c2)c1` (mixture of isomers), the Activity [1] is reported as 19.8%.

In the case of `COc1ccc(OCC(=O)c2ccc(O)cc2O)cc1`, the CC50 at 24 h [2] is reported as over 200 µM and the CMC [3] is reported as over 1000 µM.

Work on `COc1cccc(CCCCCCc2ccccc2)c1C(=O)O` yielded a CC50 at 24 h [2] of over 200 µM and a CMC [3] of over 1000 µM.

`O=C(O)c1c(O)cccc1COCCc1ccccc1` showed a CC50 at 24 h [2] of over 200 µM.

`O=C1N=C(N2CCCC2)S/C1=C/c1ccc(O)cc1O` gave a CC50 at 24 h [2] of over 200 µM and a CMC [3] of over 1000 µM.

In the case of `CCN(CC)C(=O)c1c(CCc2ccc3ccccc3c2)cc(OC)cc1OC`, the CC50 at 24 h [4] is reported as 35.8 µM, the Activity [1] is reported as 107% and the Activity [5] is reported as 97.3%. The CC50 at 24 h [6] was 85.8 µM.

`COC(=O)c1c(O)cccc1CCc1ccc2ccccc2c1` showed a CMC [3] of 20 µM.

`CCCCCCCCCc1cccc(O)c1C(=O)OC` showed a CMC [3] of 20 µM.

For `Cc1cccc2c(=O)c3c(O)cc(O)cc3oc12`, the CC50 at 24 h [2] was over 200 µM and the CMC [3] was over 1000 µM.

In the case of `O=C(COc1ccc2ccccc2c1)c1ccc(O)cc1O`, the CC50 at 24 h [2] is reported as 98.6 µM and the CMC [3] is reported as over 1000 µM.

In the case of `Cc1cc(O)c(C(=O)O)c(CCc2ccc3ccccc3c2)c1`, the CC50 at 24 h [4] is reported as 377 µM.

In the case of `O=C(O)c1ccccc1Nc1cccc(C(F)(F)F)c1`, the Activity [7] is reported as “Active”.

In the case of `O=C(O)c1cccnc1Nc1cccc(C(F)(F)F)c1`, the Activity [7] is reported as “Active”.

For `CCCCCCCCCc1cccc(OC)c1C(=O)OC`, the CMC [3] was 20 µM.

Work on `CCN(CC)C(=O)c1c(CCc2ccc3ccccc3c2)cccc1OC` yielded a CC50 at 24 h [4] of 38.5 µM, an Activity [1] of 117% and an Activity [5] of 100%. The CC50 at 24 h [6] was 62.6 µM.

For `CC(=O)Oc1ccccc1C(=O)O` [ASPIRIN], the Time (4T1.2) was 44 days.

For `CC(C)CCCC(C)CCCCc1cccc(O)c1C(=O)O` (stereo unspecified), the CMC [3] was 30 µM.

In the case of `COC(=O)c1c(O)cccc1CCCCC(C)CCCC(C)C` (stereo unspecified), the CMC [3] is reported as 20 µM.

For `Cc1ccc(Cl)c(Nc2ccccc2C(=O)O)c1Cl`, the Activity [7] was “Active”.

Work on `COc1cccc(C=Cc2ccc3ccccc3c2)c1C(=O)O` (mixture of isomers) yielded a CC50 at 24 h [4] of over 100 µM.

Source: ChEMBL document CHEMBL4420080, “Inhibitors of sox18 protein activity for treating angiogenesis- and/or lymphangiogenesis-related diseases” (2018)
